Assay results from publication PMC8213762, “An epitope-specific chemically defined nanoparticle vaccine for respiratory syncytial virus” (NPJ Vaccines, 2021).
Entries after “also recorded” stand apart in the source; their conditions may differ.

B1: 10D11: monoclonal antibody against V-306 generated in BALB/c mice (antibody, V domains shown)
VH: QVQLKESGPGLVAPSQSLSITCTVSGFSLTSYDISWIRQPPGKGLEWLGIIWNGGGTNYNSAFMSRLSINKDNSKSQVFLKMNSLQTDDTAIYYCVRGDYDYAWFDYWGQGTLVTVSA
VL: NIMMTQSPSSLTVSAGEKVTMSCKSSQSVLYGSNQKNYLAWYQQKPGQSPKLLIYWASTRDSGVPDRFTGSGSGTDFTLTISSVQAEDLAVYYCHQYLFSWTFGGGTKLEIK

Assays:
palivizumab = experiment: ELISA binding of palivizumab to coated V-306, V-306p or SVLP carrier; parameters: species or system humanized murine
Method: These ELISA were performed at the Center for Vaccinology (CEVAC), Ghent University and University Hospital, Belgium, based on the methods described above. […] Then 8 twofold serial dilutions of human serum were added. After washing, anti-human IgG Fc mAb-HRP (1/120,000 dilution) was added. After washing, TMB substrate was added. The color reaction was terminated by the addition of 1 N sulphuric acid. After 30 min the OD is read. The optical density for a given sample was used to extrapolate the Ab titer expressed in µg/mL. The coating conditions were optimized using IgG-depleted human serum spiked with known concentrations of palivizumab such that no further increase in signal is observed (saturation point) and no significant signal is seen in the negative control. The sensitivity of the assay was determined using different concentrations of palivizumab (from 0 to 200 µg/mL) and of anti-human IgG HRP-conjugated Ab (see Supplementary Fig. 5). The detection limit was 0.012207 µg/mL palivizumab (0.61 µg/mL in human serum diluted 1/50). The palivizumab-like Ab concentrations found in 20 different human sera (serum samples 001–020) are shown in Supplementary Fig. 5.

RSV A Tracy = RSV A Tracy microneutralization (MN) assay of mAbs; type: cell-based, respiratory syncytial virus; conditions: for MN titer: RSV A Tracy, HEp-2 cells, 50% reduction in viral cytopathic effect
Method: The RSV A Tracy MN assay was performed by Prof. Pedro Piedra at Baylor College of Medicine, Texas, USA. Heat-inactivated serum samples were analyzed for nAbs against RSV A/Tracy in HEp-2 cells using qualified MN assays as previously described[38]–[41]. nAb titers were defined as the final dilution at which there was a 50% reduction in viral cytopathic effect. Any serum sample resulting in a titer less than the lower limit of detection (LOD) (2.5 log2) was assigned a value of 2 log2.

RSV strain A2 = experiment: Passive transfer challenge model, lung virus titer by plaque assay; type: in vivo; conditions: cotton rats n = 5, mAb 24 h before challenge with 10^4 PFU RSV A2, doses 1.0, 2.5, 5.0, 15 mg; lungs day 5; ****P ≤ 0.0001 vs PBS
Method: The challenge study comparing 10D11 and palivizumab was performed at Sigmovir Biosystems Inc. (MD, USA). Young adult male cotton rats (8, 6–8 weeks old) were treated IM with the mAb (1.0, 2.5, 5.0, or 15 mg doses). All animals were challenged with 100 µl RSV/A2 at 10^5 pfu per animal. After sacrificing the animals, nasal and lung tissue were harvested for viral titration using the RSV/A2 60% PRNT assay described above.

| Molecule | detection limit of ELISA (palivizumab; ELISA with palivizumab standard 0 to 200 µg/mL) [µg/mL] | detection limit of ELISA in human serum (palivizumab; human serum diluted 1/50) [µg/mL] | MN titer (RSV A Tracy) [log2] | reduction of RSV replication in lungs, passive transfer (RSV strain A2) | MN potency of 10D11 relative to palivizumab (fold) (RSV A Tracy; RSV A Tracy MN) |
| --- | --- | --- | --- | --- | --- |
| palivizumab: prophylactic humanized murine monoclonal nAb | 0.01221 | 0.61 | 5.0 | significantly reduced RSV replication in the lungs in a dose-dependent manner |  |
| B1 |  |  | 7.0 | significantly reduced RSV replication in the lungs in a dose-dependent manner; also recorded: reduced lung virus titers in a dose-dependent manner | approximately fourfold |
